# Results reported in PubChem BioAssay AID1996.
# Conditions: buffer; pH 7.4; 200.0 µM
row,SMILES,solubility kinetic
1,COc1ccccc1NS(=O)(=O)c1ccc2c(c1)OCCO2,48 µg/mL
2,CC(C)(C)c1ccc(S(=O)(=O)Nc2noc3ccccc23)cc1,> 49.6 µg/mL
3,N#Cc1ccccc1NC(=O)c1ccc2c(c1)OCO2,10.8 µg/mL
4,O=C(c1ccc2c(c1)OCO2)N1CCc2ccccc21,34.9 µg/mL
5,O=C(Nc1ccncc1)C1CC(=O)N(c2ccc(F)cc2)C1 (stereo unspecified),39.3 µg/mL
6,COc1ccc(CCC(=O)Nc2ccc(C(=O)c3ccncc3)cc2)cc1,3.8 µg/mL
7,N/C(=N/S(=O)(=O)c1ccccc1)c1cccc([N+](=O)[O-])c1,> 45.8 µg/mL
8,Cc1cccc(Nc2nc(C)nc3c2oc2ccccc23)c1.Cl,1.1 µg/mL
9,Nc1nc(Nc2ccccc2)sc1C(=O)c1ccccc1,4.3 µg/mL
10,COc1ccc(C2SCC(=O)N2c2ccc(F)cc2)cc1 (stereo unspecified),35.2 µg/mL
11,CCC(CC)C(=O)N1CC(=O)Nc2ccc(F)cc2C1c1ccccc1 (stereo unspecified),51.9 µg/mL
12,COc1ccccc1NC(=O)c1ccc(NC(=O)COC(=O)c2cncc(Br)c2)cc1,10 µg/mL
13,c1ccc(-c2cccs2)nc1,1.9 µg/mL
14,CCOc1ccc(C(=O)CCC(=O)Nc2ncccc2O)cc1,> 47.2 µg/mL
15,CS(=O)(=O)c1ccc(Cl)c(NC(=O)CNC(=O)c2ccc3c(c2)OCO3)c1,> 61.6 µg/mL
16,O=C(O)CNS(=O)(=O)c1ccc2[nH]c(=O)c(=O)[nH]c2c1,> 44.9 µg/mL
17,CCOc1ccccc1NC(=S)NCc1cccn1C,38.5 µg/mL
18,Cc1cc2cc(CNC(=S)NC3CCCCC3)ccc2[nH]1,12.5 µg/mL
19,N#Cc1ccc(Cn2c(=O)oc3ccccc32)cc1,6 µg/mL
20,O=C(O)COCC(=O)NCc1csc2ccccc12,38.9 µg/mL
21,Cc1ccc(C)c(N2C(=O)CC(Cc3ccccc3)C2=O)c1.Cl (stereo unspecified),> 49.5 µg/mL
22,CN(C(=O)c1ccccc1-c1ccccc1C(=O)O)c1ccccc1,44.5 µg/mL
23,Cc1ccc(S(=O)(=O)NCCNc2ccccc2[N+](=O)[O-])cc1,1.1 µg/mL
24,CCCCC1CN2CCc3c([nH]c4ccccc34)C2(C)C1.Cl (stereo unspecified),27.7 µg/mL

row,SMILES,solubility kinetic
1,Nc1cc(N)nc(SCC(=O)NCc2ccc3c(c2)OCO3)n1,> 50 µg/mL
2,Cc1c(C(=O)N2CCN(c3ccccn3)CC2)oc2c(F)cccc12,33.2 µg/mL
3,CN(C(=O)c1ccc(Br)cc1)C1CCS(=O)(=O)C1 (stereo unspecified),> 49.8 µg/mL
4,COc1ccc(O)c(/C=N/c2sc(C)c(C)c2C#N)c1,1 µg/mL
5,Cc1c(Cl)cccc1NC(=S)Nc1ccccn1,1 µg/mL
6,CCN(CC(=O)NC1CC1)S(=O)(=O)c1ccc(C)cc1,> 44.5 µg/mL
7,COc1cc(C2(c3ccc(O)c(OC)c3)C(=O)N(C)c3ccc(C)cc32)ccc1O,51.4 µg/mL
8,Cc1nc(CSc2ccc(Br)cc2)cs1,8.8 µg/mL
9,O=C(NC(=S)Nc1ccc(O)cc1)c1ccccc1Cl,20.5 µg/mL
10,Cc1cscc1NC(=O)/C=C/C(=O)O,31.5 µg/mL
11,Cc1cccc2nc(C(=O)Nc3cccc(C(=O)NC4CC4)c3)cn12,5.5 µg/mL
12,O=C(c1ccc(C(=O)N2CCN(c3ccccc3F)CC2)nc1)N1CCN(c2ccccc2F)CC1,3.5 µg/mL
13,COc1ccc(CN(C)C(=O)c2[nH]c(C)c(C(C)=O)c2C)cc1F,> 49.9 µg/mL
14,CCN(/C(N)=N/c1nc(C)cc(C)n1)c1ccccc1,> 40.4 µg/mL
15,O=C(NCCc1cccc(Cl)c1)c1cc2ccccc2oc1=O,< 0.7 µg/mL
16,CCn1nc(C(C)C(=O)O)c2ccccc2c1=O (stereo unspecified),> 36.9 µg/mL
17,COC(=O)c1c(NC(=O)c2ccc(C)cc2)csc1C,< 0.6 µg/mL
18,Cc1ccc(Cn2c(=O)c3c(ncn3C)n(C)c2=O)cc1,> 42.6 µg/mL
19,CCSc1nnc(NC(=O)C2CSC3(C)CCC(=O)N23)s1 (stereo unspecified),> 51.7 µg/mL
20,O=C(CSc1nnc(-c2ccccn2)o1)Nc1ccc(F)cc1,> 49.6 µg/mL
21,C=CCNc1nc(C(=O)OCC(=O)Nc2ccccc2C(F)(F)F)cs1,26.9 µg/mL
22,Cc1cccc2c3nc4ccccc4nc3n(C)c12,< 0.2 µg/mL
23,O=C(CN1C(=O)c2ccccc2S1(=O)=O)c1ccc(F)c(F)c1,48.2 µg/mL
24,Cc1ccc(CC2CC(=O)N(c3nc(C)cc(C)n3)C2=O)cc1 (stereo unspecified),> 46.4 µg/mL

row,SMILES,solubility kinetic
1,O=C(CCN1C(=O)c2ccccc2S1(=O)=O)Nc1ccccc1F,> 52.3 µg/mL
2,CC1CC(C)CN(C(=O)/C=C/c2ccc([N+](=O)[O-])s2)C1 (stereo unspecified),5.8 µg/mL
3,O=C(NS(=O)(=O)c1ccccc1[N+](=O)[O-])c1ccccc1,> 45.9 µg/mL
4,CC(=O)NC1=NN(C(C)=O)C(C)(c2cccnc2)S1 (stereo unspecified),> 41.7 µg/mL
5,CCN1CCN(CCc2nc3cc([N+](=O)[O-])ccc3n2C)CC1,> 47.6 µg/mL
6,COC(=O)/C=C1\SC(N)=NC1=O,> 27.9 µg/mL
7,COCCCNc1nc(-c2ccc(Cl)cc2)nc2ccccc12,4.3 µg/mL
8,N#Cc1ccc(COC(=O)c2cnc3ccccc3n2)cc1,6.1 µg/mL
9,O=[N+]([O-])c1cnn2cc(Br)cnc12,> 36.5 µg/mL
10,CC(O)CNC12CC3CC(CC(C3)C1)C2 (stereo unspecified),29.6 µg/mL
11,Cc1ccc(NC(=O)CCC2CC(C)(C)OC2=O)cc1 (stereo unspecified),> 41.3 µg/mL
12,O=C1C(Cc2c[nH]c3ccccc23)NC(=S)N1C1CCCCC1 (stereo unspecified),49 µg/mL
13,CNC(=O)c1c(NC(=O)C(C)C)sc2c1CCC2,36.5 µg/mL
14,Cc1cc(C(=O)NCc2ccco2)c2ccccc2n1,> 39.9 µg/mL
15,CC(OC(=O)c1ccc(NC(=O)CC#N)cc1)C(=O)NC(c1ccccc1)c1ccccc1 (stereo unspecified),8.5 µg/mL
16,CSC1=NC2(C[C@H]2c2ccccc2)C(=O)N1C (stereo partly specified),> 36.9 µg/mL
17,Brc1cccc(C2Nc3cccc4cccc(c34)N2)c1,< 0.3 µg/mL
18,CCN1CCN(c2ccc(N=Cc3ccccc3O)cc2)CC1,40.7 µg/mL
19,CSCCC(NC(=O)c1ccccc1)C(=O)OCC(=O)NCc1ccco1 (stereo unspecified),> 58.6 µg/mL
20,Cc1ccccc1OCC(=O)NCCCNC(=O)c1ccccn1,> 49.1 µg/mL
21,Cc1cc(NC(=O)c2c(-c3c(F)cccc3Cl)noc2C)no1,> 50.4 µg/mL
22,COc1ccc(CNc2c(CO)cnc3c2cnn3C)cc1,> 44.8 µg/mL
23,Cc1csc(NC(=O)c2ccc3ccccc3n2)n1,4 µg/mL

# Further lines, results first:
row,solubility kinetic,SMILES
1,52.3 µg/mL,Cc1ccc(C(=O)N2CCCC(C(=O)c3cc(F)ccc3F)C2)s1 (stereo unspecified)
2,> 45.7 µg/mL,Cc1nc(C)c(C(=O)OCC(=O)NCc2ccccc2)s1
3,> 42.4 µg/mL,Cc1ccc(C)c(S(=O)(=O)N2CCCN(C)CC2)c1
4,> 52 µg/mL,CC(C(=O)Nc1cccc([N+](=O)[O-])c1)N1C(=O)NC2(CCCC2)C1=O (stereo unspecified)
5,> 42.1 µg/mL,CCc1cc(N2CCOCC2)cc2c1[nH]c1ccccc12
6,12.7 µg/mL,O=C(NC1CCCCC1)N1CCN(c2ccc([N+](=O)[O-])cc2)CC1
7,37 µg/mL,CC(C)C(NC(=O)c1ccccc1NC(=O)C(C)(C)C)C(=O)N1CCOCC1 (stereo unspecified)
8,21.4 µg/mL,Nc1cc(Cl)ccc1C(=O)OCC(=O)N1CCCC1
9,2.4 µg/mL,O=C(CC1CCCCC1)NCc1ccc(Cl)cc1
10,46.8 µg/mL,CCN(CC)S(=O)(=O)c1cccc(NC2=NCCCCC2)c1
11,5 µg/mL,Fc1ccc2[nH]c3c(c2c1)CN(C(=S)NCc1ccccc1)CC3
12,34 µg/mL,CN=C(C)/C(C(=O)OC)=C(/O)c1ccc(Cl)cc1Cl
13,19 µg/mL,O=C(COC(=O)c1cccc(Br)c1)NCc1ccco1
14,2.2 µg/mL,CCCCc1ccc(NC(=S)N2CCN(C(=O)OCC)CC2)cc1
15,84.7 µg/mL,CCOc1cc(N2CCOCC2)c(OCC)cc1NC(=O)COC(=O)C1CCCN1S(=O)(=O)c1ccccc1F (stereo unspecified)
16,> 53.2 µg/mL,O=C(N/C(=C/c1ccccc1Cl)C(=O)N1CCCC1)c1ccccc1
17,> 52.2 µg/mL,CN(C)S(=O)(=O)c1ccc(Cl)c(C(=O)NC2=NCCS2)c1
18,52.8 µg/mL,Cc1ccc(C)c(N(CC(=O)N2CCc3ccccc3C2)S(C)(=O)=O)c1
19,7.6 µg/mL,O=C(Nc1ccc(Br)cc1)N1CCCCCC1
20,4.6 µg/mL,CCN(CC)c1ccc(C(=O)OCC(=O)Nc2cc(C)on2)cc1
21,18.3 µg/mL,CC(C)OCCCNC(=O)NC(=O)c1ccc(Cl)cc1
22,> 61.3 µg/mL,CC1CN(C(=O)c2ccccc2NS(=O)(=O)c2ccc(Cl)cc2)CC(C)O1 (stereo unspecified)
23,43.6 µg/mL,Cc1ccc(CNC(=O)CN2C(=O)NC3(CCCC3)C2=O)cc1

row,solubility kinetic,SMILES
1,20.1 µg/mL,COc1ccc(S(=O)(=O)NCCC(=O)NC2CCCCC2C)cc1[N+](=O)[O-] (stereo unspecified)
2,> 65.2 µg/mL,CCOC(=O)C1CCCN(C(=O)c2ccccc2NS(=O)(=O)c2ccc(F)cc2)C1 (stereo unspecified)
3,> 43.7 µg/mL,COc1ccccc1C(=O)NC(=O)COC(=O)C1CCC1
4,> 42.9 µg/mL,O=C(Nc1ccc(CN2CCOCC2)cc1)c1ccco1
5,> 39.3 µg/mL,Cc1cccc(C(=O)NCC(=O)N2CCOCC2)c1
6,26.6 µg/mL,CCCCc1ccc(NC(=O)Cn2c(=O)c(N3CCCCC3)c(N)n(C)c2=O)cc1
7,> 56.2 µg/mL,Cc1ccc(/C=N/NC(=O)CN2CCN(Cc3ccccc3Cl)CC2)o1
8,4.7 µg/mL,O=C(c1cccs1)N1CCN(c2ccc([N+](=O)[O-])cc2F)CC1
9,3.1 µg/mL,CCOC(=O)c1c(C=O)c2ccccc2n1CC
10,> 46.9 µg/mL,CC1CCN(C(=O)COC(=O)c2ccc3ccccc3n2)CC1
11,> 48.1 µg/mL,COc1cc(CNC2CCCCCCC2)ccc1OCC(N)=O
12,12.8 µg/mL,O=C(CN1CCN(S(=O)(=O)c2ccccc2F)CC1)N1CCc2ccccc2C1
13,3.8 µg/mL,CC(=O)Nc1ccc(C(=O)OCC(=O)N(c2ccccc2)C2CCCCC2)cc1
14,3.6 µg/mL,Cn1c(N)c(C(=O)COC(=O)c2cc3ccccc3cc2O)c(=O)n(C)c1=O
15,> 44.6 µg/mL,CCOc1ccc(S(=O)(=O)N2CN3CCN(C3)C2)cc1
16,> 74.2 µg/mL,COc1ccc(NC(=O)CN2C(=O)NC3(CCCCC3C)C2=O)cc1S(=O)(=O)N1CCOCC1 (stereo unspecified)
17,> 38.9 µg/mL,CCOC(=O)c1ccc2[nH]c3c(c2c1)CCCC3O (stereo unspecified)
18,3.7 µg/mL,COc1ccc(NS(=O)(=O)c2cc(NC(=O)c3cc(F)c(F)cc3Cl)ccc2N2CCOCC2)cc1
19,47.7 µg/mL,O=C(CN1C(=O)NC2(CCCCCCC2)C1=O)NCc1ccccc1
20,29.4 µg/mL,Cc1nc2cc(NC(=O)N3CCCC3)ccc2n1C
21,> 42.8 µg/mL,O=C(O)COc1ccc(S(=O)(=O)N2CCCC2)cc1
22,51.5 µg/mL,CCOC(=O)C1CCN(C(=O)CSc2nc3ncccc3[nH]2)CC1
